Data: patent US20080249303A1 (WYETH, priority 2007, published 2008)

Key:
[1] = Bazedoxifene acetate recovery in different extraction media, XRD peak area after tablet extraction; assay type: physicochemical; conditions: 1.0 mL/tablet, XRD peak at 12.8° (Form A)
Experimental: The coatings of three of the tablets were removed. The resulting tablets were then placed in a small beaker. About 3.0 ml of extraction medium solution was added to the beaker to produce a mixture. The mixture was broken up and stirred for about 5 to about 15 minutes. The resulting mixture was filtered and washed with an additional 3.0 ml of extraction medium solution three times to produce a solid (filtrand). The recovered solid was dried at about 40° C. overnight. The dried solid was grinded and pressed into pellets for XRD measurement. This procedure can be scaled up or down for various quantities of BZA tablets. This procedure was employed for the samples found in Table 1.
X-Ray Powder Diffraction analyses were carried out on samples prepared according to Examples 1 and 2 using a Bruker D8 Discover X-ray diffractometer with GADDS. The diffractometer power was set at 40 kV and 40 mA. The collimator diameter of the instrument was about 0.8 mm and the detector-to-sample distance was set at about 30 cm. The X-ray incident angle relative to the pellet/tablet surface was about 40 and the detection angle relative to the pellet/tablet surface was about 16±0.2°. Data were collected at about 120 minutes to about 240 minutes.
The following table illustrates the results of experiments using the extraction methods of Example 1. The extractions were performed using different extraction media and the results were measured in terms of peak area of bazedoxifene using XRD as described in Example 3.

[2] = as above; assay type: physicochemical; conditions: XRD peak at 12.8° (Form A)

Peak Area of Bazedoxifene ([1]; Experiment 6, 0.50 M Ammonium Acetate, pH 6.20): 22.7 count · degree
Peak Area of Bazedoxifene ([1]; Experiment 7, 0.125 M Ammonium Acetate + 0.375 M Sodium Acetate, pH 6.85): 23.1 count · degree
Peak Area of Bazedoxifene ([1]; Experiment 8, 0.05 M Ammonium Acetate + 0.45 M Sodium Acetate, pH 7.18): 32.0 count · degree
Peak Area of Bazedoxifene ([1]; Experiment 9, 0.50 M Sodium Acetate, pH 8.34): 36.2 count · degree
Peak Area of Bazedoxifene ([1]; Experiment 10, 0.50 M Sodium Chloride, pH 9.20 adjusted by Sodium Hydroxide): 21.8 count · degree
Peak Area of Bazedoxifene ([2]; Experiment 1, Millipore Water, pH 5.9, 2.50 mL/tablet): 3.3 count · degree
Peak Area of Bazedoxifene ([2]; Experiment 2, Millipore Water, pH 5.9, 1.67 mL/tablet): 4.9 count · degree
Peak Area of Bazedoxifene ([2]; Experiment 3, Diluted Acetic Acid, pH 1.96, 2.50 mL/tablet): No Detection
Peak Area of Bazedoxifene ([2]; Experiment 5, Millipore Water, pH 5.9, 0.83 mL/tablet): 11.6 count · degree
Compound: Cc1c(-c2ccc(O)cc2)n(Cc2ccc(OCCN3CCCCCC3)cc2)c2ccc(O)cc12 [Bazedoxifene acetate, 1-[4-(2-azepan-1-yl-ethoxy)-benzyl]-2-(4-hydroxy-phenyl)-3-methyl-1H-indol-5-ol acetic acid]
